In patent US11760764B2, “Methods and compositions for targeting PD-L1” (Aligos Therapeutics, Inc., priority 2020, dated 2023):

Experiments:
[1] = biological target: T1, PD-1/PD-L1 interaction (Jurkat cells overexpressing PD-1 co-cultured with PD-L1 expressing CHO cells) (Homo sapiens, UniProt Q9NZQ7); assay: PD-1/PD-L1 NFAT Reporter Assay; assay type: cell-based; details: Table C-1; Jurkat/CHO co-culture, 6 hrs at 37° C., luciferase activity
T1 construct: expressed in transfected cells; Jurkat cells (PD-1 and NF-AT luciferase construct)
Method: Blocking the PD-1/PD-L1 interaction will release the inhibitory signal and results in TCR signaling and NFAT-mediated luciferase activity.
CHO cells expressing surface-bound anti-CD3 antibodies and PD-L1 were first seeded overnight and treated with the compounds. Jurkat cells overexpressing PD-1 and a luciferase construct under NF-AT promoter were then immediately seeded on the monolayer of CHO cells. The co-culture was then incubated for 6 hrs at 37° C. Luciferase activity was assessed by adding the ONE-Glo reagent and measuring luminescence with a plate reader. EC50s values were determined from the fit of the dose-response curves

[2] = biological target: PD-1/PD-L1 interaction (PDL1-6×His protein, PD1-Fc-Avi-Biotin protein) (Homo sapiens, UniProt Q9NZQ7); assay: PDL1/PD1 Binding Assay; details: Table C; 0.3 nM PDL1, 2.5 nM PD1; read-out: PD-1/PD-L1 PPI IC50
Method: Compounds to be tested were serially diluted in DMSO, and further diluted in assay buffer (25 mM Hepes pH 7.4, 150 mM NaCl, 0.005% Tween 20, BSA 0.01%). Diluted compounds were added to the wells with final concentration of DMSO at 1%. PDL1-6×His protein was added to the wells, mixed well with compound. The plates were incubated for 30 min at room temperature. PD1-Fc-Avi-Biotin protein was added to the wells. […] After a binding time of 30 min at room temperature, Anti-6×His Acceptor beads (final concentration 20 ug/ml) were added to the wells, and the incubation continued for 1 h. Streptavidin Donor beads (final concentration 20 ug/mL) were added at reduced light. The plates were sealed with foil and incubated in the dark for additional 1 h or overnight before reading on an Envision reader. The IC50s were determined by fitting the curves using a four-parameter equation in Graphpad Prism 8.

PD-1/PD-L1 interaction (PDL1-6×His protein, PD1-Fc-Avi-Biotin protein), sequence (Q9NZQ7 19-238 limits assumed): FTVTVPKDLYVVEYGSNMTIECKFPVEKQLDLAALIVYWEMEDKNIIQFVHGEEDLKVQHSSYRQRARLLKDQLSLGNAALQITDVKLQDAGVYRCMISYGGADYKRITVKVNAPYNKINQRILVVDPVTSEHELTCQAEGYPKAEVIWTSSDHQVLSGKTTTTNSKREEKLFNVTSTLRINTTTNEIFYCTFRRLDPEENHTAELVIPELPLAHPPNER
T1 sequence (Q9NZQ7 19-290): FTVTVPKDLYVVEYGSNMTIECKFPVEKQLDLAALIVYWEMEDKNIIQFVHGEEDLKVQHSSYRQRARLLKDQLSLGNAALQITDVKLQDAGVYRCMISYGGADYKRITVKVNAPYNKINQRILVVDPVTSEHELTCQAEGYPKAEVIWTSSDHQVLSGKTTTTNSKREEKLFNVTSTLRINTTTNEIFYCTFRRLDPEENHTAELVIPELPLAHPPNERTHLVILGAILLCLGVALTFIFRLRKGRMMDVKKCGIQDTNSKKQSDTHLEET

SMILES | EC50 [1] [nM] | IC50 [2] [nM]
COc1cc(-c2cccc(-c3cccc(-c4cc5c(c(OC)c4)[C@H](NC[C@@H]4CCC(=O)N4)CC5)c3Cl)c2Cl)cc2c1[C@H](NC[C@@H]1CCC(=O)N1)CC2 (single isomer, unassigned) [Compound L-1] | 10 to 100 | 
COc1cc(-c2cccc(-c3cccc(-c4cc5c(c(OC)c4)[C@@H](NC[C@@H]4CCC(=O)N4)CC5)c3Cl)c2Cl)cc2c1[C@@H](NC[C@@H]1CCC(=O)N1)CC2 (single isomer, unassigned) [Compound L-2] | > 10000 | 
CCOC(=O)C1CN([C@H]2CCc3cc(-c4cccc(-c5cccc(-c6cc7c(c(OC)n6)[C@@H](NC[C@@H]6CCC(=O)N6)CC7)c5Cl)c4Cl)nc(OC)c32)C1 (single isomer, unassigned) [Compound N-1A] | 10 to 100 | 
O=C(O)CNC1CCc2cc(-c3cccc(-c4cccc(-c5ccc6c(c5)CCC6NCC(=O)O)c4Cl)c3Cl)ccc21 (stereo not drawn) [Compound A-1] |  | ≤ 10
CC(=O)NCCNC1CCc2cc(-c3cccc(-c4cccc(-c5ccc6c(c5)CCC6NCCNC(C)=O)c4Cl)c3Cl)ccc21 (stereo not drawn) [Compound A-3] |  | 10 to 100
CC(=O)NCCNC1Cc2ccc(-c3cccc(-c4cccc(-c5ccc6c(c5)CC(NCCNC(C)=O)C6)c4Cl)c3Cl)cc2C1 (stereo not drawn) [Compound A-4] |  | 10 to 100
O=C(O)CNC1Cc2ccc(-c3cccc(-c4cccc(-c5ccc6c(c5)CC(NCC(=O)O)C6)c4Cl)c3Cl)cc2C1 (stereo not drawn) [Compound A-5] |  | ≤ 10
O=C1CC[C@@H](CNC2Cc3ccc(-c4cccc(-c5cccc(-c6ccc7c(c6)CC(NC[C@@H]6CCC(=O)N6)C7)c5Cl)c4Cl)cc3C2)N1 (stereo partly drawn) [Compound A-6] |  | ≤ 10
O=C1CC[C@@H](CNC2Cc3ccc(-c4cccc(-c5cccc(-c6ccc7c(c6)CC(O)C7)c5Cl)c4Cl)cc3C2)N1 (stereo partly drawn) [Compound A-7] |  | 100 to 1000
Clc1c(-c2ccc3c(c2)CC(N2CCOCC2)C3)cccc1-c1cccc(-c2ccc3c(c2)CC(N2CCOCC2)C3)c1Cl (stereo not drawn) [Compound A-8] |  | 100 to 1000
Clc1c(-c2ccc3c(c2)CCNC3)cccc1-c1cccc(-c2ccc3c(c2)CCNC3)c1Cl [Compound B-1] |  | ≤ 10
Clc1c(-c2ccc3c(c2)CNC3)cccc1-c1cccc(-c2ccc3c(c2)CNC3)c1Cl [Compound B-2] |  | 10 to 100
Clc1c(-c2ccc3c(n2)CCNC3)cccc1-c1cccc(-c2ccc3c(n2)CCNC3)c1Cl [Compound B-3] |  | 10 to 100
Clc1c(-c2cc3c(cn2)CNCC3)cccc1-c1cccc(-c2cc3c(cn2)CNCC3)c1Cl [Compound B-4] |  | 10 to 100
Clc1c(-c2ccc3c(n2)OCCNC3)cccc1-c1cccc(-c2ccc3c(n2)OCCNC3)c1Cl [Compound B-5] |  | 100 to 1000
N[C@H]1CCc2cc(-c3cccc(-c4cccc(-c5ccc6c(c5)CC[C@@H]6N)c4Cl)c3Cl)ccc21 [Compound B-7] |  | 100 to 1000
N[C@@H]1CCc2cc(-c3cccc(-c4cccc(-c5ccc6c(c5)CC[C@H]6N)c4Cl)c3Cl)ccc21 [Compound B-8] |  | 100 to 1000
CC1(C)CNCc2ccc(-c3cccc(-c4cccc(-c5ccc6c(c5)C(C)(C)CNC6)c4Cl)c3Cl)cc21 [Compound B-9] |  | 1000 to 10000
Fc1cc(-c2cccc(-c3cccc(-c4cc(F)c5c(c4)CCNC5)c3Cl)c2Cl)cc2c1CNCC2 [Compound B-10] |  | 10 to 100
Clc1c(-c2ccc3c(c2)COC32CNC2)cccc1-c1cccc(-c2ccc3c(c2)COC32CNC2)c1Cl [Compound B-12] |  | 1000 to 10000
CC1Cc2cc(-c3cccc(-c4cccc(-c5ccc6c(c5)CC(C)NC6)c4Cl)c3Cl)ccc2CN1 (stereo not drawn) [Compound B-13] |  | 10 to 100

SMILES | EC50 [1] [nM] | IC50 [2] [nM]
Cc1c(-c2cccc(-c3cccc(-c4ccc5c(c4C)CCNC5)c3Cl)c2Cl)ccc2c1CCNC2 [Compound B-14] |  | 100 to 1000
Cc1c(-c2cccc(-c3cccc(-c4ccc5c(c4C)CNCC5)c3Cl)c2Cl)ccc2c1CNCC2 [Compound B-15] |  | 1000 to 10000
Cc1cc2c(cc1-c1cccc(-c3cccc(-c4cc5c(cc4C)CNCC5)c3Cl)c1Cl)CCNC2 [Compound B-16] |  | 100 to 1000
COc1cc(-c2cccc(-c3cccc(-c4cc5c(c(OC)c4)CNCC5)c3Cl)c2Cl)cc2c1CNCC2 [Compound B-17] |  | 10 to 100
O=C(O)C[C@H](O)CN1Cc2ccc(-c3cccc(-c4cccc(-c5ccc6c(c5)CN(C[C@@H](O)CC(=O)O)C6)c4Cl)c3Cl)cc2C1 [Compound C-1] |  | ≤ 10
O=C(O)C[C@H](O)CN1CCc2cc(-c3cccc(-c4cccc(-c5ccc6c(c5)CCN(C[C@@H](O)CC(=O)O)C6)c4Cl)c3Cl)ccc2C1 [Compound C-2] |  | ≤ 10
O=C(O)C[C@H](O)CN1CCc2nc(-c3cccc(-c4cccc(-c5ccc6c(n5)CCN(C[C@@H](O)CC(=O)O)C6)c4Cl)c3Cl)ccc2C1 [Compound C-3] |  | 100 to 1000
O=C(O)C[C@H](O)CN1CCc2cc(-c3cccc(-c4cccc(-c5cc6c(cn5)CN(C[C@@H](O)CC(=O)O)CC6)c4Cl)c3Cl)ncc2C1 [Compound C-4] |  | 10 to 100
O=C(O)C[C@H](O)CN1CCOc2nc(-c3cccc(-c4cccc(-c5ccc6c(n5)OCCN(C[C@@H](O)CC(=O)O)C6)c4Cl)c3Cl)ccc2C1 [Compound C-5] |  | 1000 to 10000
O=C(O)C[C@H](O)CN1CCc2ccc(-c3cccc(-c4cccc(-c5ccc6c(c5)CN(C[C@@H](O)CC(=O)O)CC6)c4Cl)c3Cl)cc2C1 [Compound C-6] |  | ≤ 10
CC1(C)CN(C[C@@H](O)CC(=O)O)Cc2ccc(-c3cccc(-c4cccc(-c5ccc6c(c5)C(C)(C)CN(C[C@@H](O)CC(=O)O)C6)c4Cl)c3Cl)cc21 [Compound C-7] |  | 100 to 1000
O=C(O)C[C@H](O)CN1CCc2cc(-c3cccc(-c4cccc(-c5cc(F)c6c(c5)CCN(C[C@@H](O)CC(=O)O)C6)c4Cl)c3Cl)cc(F)c2C1 [Compound C-8] |  | ≤ 10
CC1Cc2cc(-c3cccc(-c4cccc(-c5ccc6c(c5)CC(C)N(C[C@@H](O)CC(=O)O)C6)c4Cl)c3Cl)ccc2CN1C[C@@H](O)CC(=O)O (stereo partly drawn) [Compound C-9] |  | ≤ 10
CCOC(=O)CN[C@H]1CCc2cc(-c3cccc(-c4cccc(-c5ccc6c(c5)CC[C@@H]6NCC(=O)OCC)c4Cl)c3Cl)ccc21 [Compound F-1] |  | 100 to 1000
O=C(O)CN1CCc2ccc(-c3cccc(-c4cccc(-c5ccc6c(c5)CN(CC(=O)O)CC6)c4Cl)c3Cl)cc2C1 [Compound H-1] |  | ≤ 10
O=C(O)CN1CCc2cc(-c3cccc(-c4cccc(-c5ccc6c(c5)CCN(CC(=O)O)C6)c4Cl)c3Cl)ccc2C1 [Compound H-2] |  | ≤ 10
O=C(O)CN1CCC12CCc1cc(-c3cccc(-c4cccc(-c5ccc6c(c5)CCC5(CCN5CC(=O)O)C6)c4Cl)c3Cl)ccc1C2 (stereo not drawn) [Compound H-3] |  | 100 to 1000
O=C(O)CN1CC2(C1)OCc1cc(-c3cccc(-c4cccc(-c5ccc6c(c5)COC65CN(CC(=O)O)C5)c4Cl)c3Cl)ccc12 [Compound H-4] |  | 10 to 100
CC(=O)N1CC(N2CCOc3nc(-c4cccc(-c5cccc(-c6ccc7c(n6)OCCN(C6CN(C(C)=O)C6)C7)c5Cl)c4Cl)ccc3C2)C1 [Compound I-1] |  | > 10000
N[C@@H](CC(=O)O)C(=O)N1CCc2ccc(-c3cccc(-c4cccc(-c5ccc6c(c5)CN(C(=O)[C@@H](N)CC(=O)O)CC6)c4Cl)c3Cl)cc2C1 [Compound J-1] |  | 10 to 100
Clc1c(-c2ccc3c(c2)CCNC3)cccc1-c1cccc(-c2ccc3c(c2)CCN(c2ncccn2)C3)c1Cl [Compound K-1] |  | 1000 to 10000
